Legend:
[1] = solubility kinetics by the paddle method (dissolved fraction by HPLC); assay type: physicochemical; settings: 900 ml water, 37° C., 150 rpm; micronizate pre-dispersed in 2 ml PVP-containing solution
Experimental: 14 mg of the solid form with Methocel E5 as excipient according to Example 2 with a content of active substance of 21.5 wt. % (equivalent to 3 mg drospirenone) is added to 900 ml water, at 37° C. and stirred at 150 rpm with a blade stirrer. A blind sample (starting value) and samples at 5, 10, 20, 30, and 60 min are taken, filtered in a 0.2 μm syringe filter and the dissolved fraction of drospirenone is determined by HPLC. A conventional micronizate (jet mill) serves as comparison. So that the dissolution behavior of the primary grains of the micronizate is assessed exclusively, wetting and agglomeration effects must be avoided. Therefore, before it was added to the 900 ml of water, the micronizate was dispersed in 2 ml of a PVP-containing solution. The process of release of the particles from the solid form and the subsequent process of dissolution are completed after 5 min, whereas with the conventional micronizate, even with perfect wetting and dispersion of the particles, still almost 30% of the active substance is undissolved after 5 min.

[2] = grain size distribution by laser diffraction (Sympatec Helos, RODOS dry disperser); assay type: physicochemical; settings: vol. % of particles smaller than value
Experimental: The particle size distribution (grain size distribution) is measured by means of a laser diffraction, which provides a distribution curve of the particle sizes (System Sympatec Helos, RODOS dry disperser). dx means that x volume percent (vol. %) of the particles have a diameter that is smaller than the stated value. Thus, at a d50 value of 1 μm, 50 vol. % of the particles have a diameter smaller than 1 μm (micrometer). When the d10, d99 or d100 is 2 μm, 10, 99 or 100 vol. % of the particles have a diameter smaller than 2 μm.
A 100-ml stirred vessel with blade stirrer is charged with 160 g of Y-stabilized zirconium oxide spheres with a diameter of 0.5 mm plus 30 ml water. A solution of 1.5 g drospirenone in 6.25 ml ethanol/water 4:1 (v/v) is added, with stirring. After precipitation of a mainly amorphous phase, transformation to the crystalline modification begins after approximately 2 min. This is completed after 10 to 15 min. After completion of the phase transformation, a solution of 4.5 g drospirenone in 18.75 ml ethanol/water 4:1 (v/v) and in the same ratio 90 ml water is added dropwise within 15 min, with stirring at 1500 rpm. Simultaneously, with approximately constant filling level, product suspension is drawn off. Addition and product withdrawal can also take place quasicontinuously in smaller portions without any adverse effect on the result, if the above time frame is maintained. After the end of addition, to make the yield complete, approx. 60 ml water is used for rinsing. Alternatively, the suspension in the crystallizer can also be left as starting suspension for the next batch. Altogether, 200 g of suspension is obtained, with a solids content of 25 mg per ml. Approximately 15 ml of this suspension is filtered on a G4 frit and the solid is air-dried. The grain size distribution of the dried substance is determined by laser diffraction (Sympatec Helos, RODOS dispersing system).
Granulometric analysis is carried out by laser diffraction (Sympatec Helos, RODOS dispersing system):
Granulometric analysis was carried out by laser diffraction (Sympatec Helos, RODOS dispersing system, dispersing pressure 5 bar).

| SMILES | active substance undissolved after 5 min [1] | d16 (grain size distribution) [2] | d50 (grain size distribution) [2] | d99 (grain size distribution) [2] | d100 (grain size distribution) [2] |
| --- | --- | --- | --- | --- | --- |
| C[C@]12CCC(=O)C=C1[C@@H]1C[C@@H]1[C@H]1[C@@H]3[C@@H]4C[C@@H]4[C@@]4(CCC(=O)O4)[C@@]3(C)CC[C@@H]12 [conventional micronizate, drospirenone] | ~30% |  |  |  |  |
| C[C@]12CCC(=O)C=C1[C@@H]1C[C@@H]1[C@H]1[C@@H]3[C@@H]4C[C@@H]4[C@@]4(CCC(=O)O4)[C@@]3(C)CC[C@@H]12 [Example 1, drospirenone] |  | 0.52 μm | 1.48 μm | 4.63 μm | 6.00 μm |

— US9173843B2, “Crystalline active ingredient microparticles, method for producing the same and use thereof in drugs” (Jesalis Pharma GMBH, priority 2008, dated 2015)
